Results published in patent EP2792354A2, “COMPOSITION OF […] ACUTE AND CHRONIC HEPATIC ENCE[…] METHOD FOR TREATING ACUTE AND CHRONIC HEPATIC ENCEPHALOPATHY” (Obshchestvo S Ogranichennoj Otvetstvennostju …, priority 2011, dated 2012).

Columns and labels:
[1] = tested on: acute HE, induced by ammonia injection in mice; experiment: CCl4 pretreatment 24 hours before lethal dose of NH4Cl (preconditioning), animal survival; format: in vivo; details: CCl4 2 ml/kg wt 24 hours before NH4Cl LD100+; NaCl instead of protector
Procedure: Table 1. […] Introduction of various doses of NH4 (12-14 mmol / kg) at 24 hours after administration of these toxins, can cause the development of acute HE and death of most or all animals. However, this effect depends on the dose used toxins CCl4. It can be seen that low doses of CCl4 (2ml/kg), being administered to intact animals , results in almost total protection against the lethal dose of NH4, resulting in the survival of 80 % of treated animals, i.e. there is the effect of preconditioning.

[2] = type 2 diabetes (D2) mice, CCl4, injections 3 days; alive animals
Procedure: In the experiments, male albino mice weighing 20 - 35 g after 12 hours of fasting. • 1. […] The recommended classification of the stages of HE for laboratory animals was used (116). • 2.1 The models of acute liver failure , resulting in necrosis and fatty degeneration of the liver cells due to oxidative stress , by introducing :CCl4 (2 - 4ml/kg subcutaneously or i.p.); acetaminophen-AAF (300 - 500mg/kg i.p.) or thioacetamide (TAA , 300 - 500mg / kg i.p.), in accordance with known data (103,104,116-118). […] Control the level of glucose, insulin , ALT , bilirubin, glycerol, triglycerides and fatty acids in the blood and in the liver, histological examination of the liver was carried out. • 2.2.2 The model of type 2 diabetes, according to the data of (115), in which after 1 - 2 months of feeding fat, animals were injected i.p. 50mg/kg of streptozotocin (to suppress the activity of β-cells) and then 15 days later , after controlling for the main indicators of the blood ,were used in the experiments.
The comparison of the efficacy of compositions ∑3 and LoLa on the alive diabetic animals treated with CCL4 and protectors used (according to pp.4-6 of Tab.2)

| SMILES | % survival [1] [%] | AAT plasma [2] [U/L] | Glucose Plasma [2] | LCFA Plasma [2] |
| --- | --- | --- | --- | --- |
| ClC(Cl)(Cl)Cl [CCl4] | 80 |  |  |  |
| [Cl-].[Na+] [NaCl] |  | 1540±350 | 13,1±0,8 mMol | 1,55±0,28 mMol |
